Results as given in the supplement of paper PMC10878532, “Sperm Toolbox—A selection of small molecules to study human spermatozoa” (PLOS ONE, 2024).

Experiments:
human spermatozoa [1] = test: change in acrosome-reacted (PNA+) sperm vs DMSO, no agonist (capacitating); higher = more of the measured sperm population than DMSO, for viability, fewer PI-positive (dead) cells than DMSO; conditions: incubation time: 3h
HepG2 = HepG2 toxicity (resazurin), effect normalised to DMSO (DMSO = 0); higher = more features changed / larger toxic effect; conditions: incubation time: 70h incubation
human spermatozoa [2] = test: acrosome-reacted (PNA+) sperm after agonist cocktail, percent change vs DMSO (capacitating); higher = more of the measured sperm population than DMSO, for viability, fewer PI-positive (dead) cells than DMSO; conditions: incubation time: 3h, capacitating + agonist cocktail 1h
human spermatozoa [3] = test: progressively motile sperm, percent change vs DMSO (non-capacitating); higher = more of the measured sperm population than DMSO, for viability, fewer PI-positive (dead) cells than DMSO; extreme values may be limits of the assay
HeLa [4] = test: HeLa toxicity: nuclei-count effect normalised to DMSO (DMSO = 0); higher = more features changed / larger toxic effect; conditions: incubation time: 24h incubation
human spermatozoa [5] = test: total motile sperm, percent change vs DMSO (non-capacitating); higher = more of the measured sperm population than DMSO, for viability, fewer PI-positive (dead) cells than DMSO
HeLa [6] = test: Cell Painting percent induction (share of features beyond 2 z-scores vs DMSO); higher = more features changed / larger toxic effect; extreme values may be limits of the assay; conditions: incubation time: 24h incubation
human spermatozoa [7] = test: progressively motile sperm, percent change vs DMSO (capacitating); higher = more of the measured sperm population than DMSO, for viability, fewer PI-positive (dead) cells than DMSO; conditions: incubation time: 30min incubation
human spermatozoa [8] = test: hyperactivated motile sperm, percent change vs DMSO (capacitating); higher = more of the measured sperm population than DMSO, for viability, fewer PI-positive (dead) cells than DMSO; conditions: incubation time: 30min incubation
human spermatozoa [9] = test: viability fold change, 1 - (PI-positive fraction / DMSO median); higher = more of the measured sperm population than DMSO, for viability, fewer PI-positive (dead) cells than DMSO; conditions: incubation time: 3h, non-capacitating
[10] = incubation time: 10min incubation, 9.99 µM
[11] = incubation time: 10min incubation, 29.9 µM
[12] = incubation time: 3h incubation, 9.99 µM
[13] = incubation time: 3h incubation, 29.9 µM
[14] = incubation time: 6h incubation, 9.99 µM
[15] = incubation time: 6h incubation, 29.9 µM
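Wherever progressively motile sperm, percent change vs DMSO (non-capacitating) is given: pooled live human sperm from at least 3 donors, tracked by automated microscopy in 0.5 s time-lapse movies, compounds at 10 and 30 µM, versus median of 16 DMSO wells per plate.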
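Wherever total motile sperm, percent change vs DMSO (non-capacitating) is given: sperm pooled from at least 3 donors, tracked in 0.5 s time-lapse movies by automated microscopy after 10 min, 3 h or 6 h with compound at 10 or 30 µM.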

SMILES | change in acrosome-reacted (human spermatozoa [1]; 9.99 µM) | change in acrosome-reacted (human spermatozoa [1]; 29.9 µM) | HepG2 toxicity (HepG2; 10 µM) | HepG2 toxicity (HepG2; 30 µM) | acrosome-reacted (human spermatozoa [2]; 9.99 µM) | acrosome-reacted (human spermatozoa [2]; 29.9 µM) | progressively motile sperm (human spermatozoa [3]; [10]) | progressively motile sperm (human spermatozoa [3]; [11]) | progressively motile sperm (human spermatozoa [3]; [12]) | progressively motile sperm (human spermatozoa [3]; [13]) | progressively motile sperm (human spermatozoa [3]; [14]) | progressively motile sperm (human spermatozoa [3]; [15]) | HeLa toxicity: nuclei-count effect normalised (HeLa [4]; 9.99 µM) | HeLa toxicity: nuclei-count effect normalised (HeLa [4]; 29.9 µM) | total motile sperm (human spermatozoa [5]; [10]) | total motile sperm (human spermatozoa [5]; [11]) | total motile sperm (human spermatozoa [5]; [12]) | total motile sperm (human spermatozoa [5]; [13]) | total motile sperm (human spermatozoa [5]; [14]) | total motile sperm (human spermatozoa [5]; [15]) | Cell Painting percent induction (HeLa [6]; 9.99 µM) | Cell Painting percent induction (HeLa [6]; 29.9 µM) | progressively motile sperm (human spermatozoa [7]; 9.99 µM) | progressively motile sperm (human spermatozoa [7]; 29.9 µM) | hyperactivated motile sperm (human spermatozoa [8]; 9.99 µM) | hyperactivated motile sperm (human spermatozoa [8]; 29.9 µM) | viability fold change (human spermatozoa [9]; 9.99 µM) | viability fold change (human spermatozoa [9]; 29.9 µM)
c1ccc2c(c1)SCc1c-2[nH]c2ccccc12 | 0.192% | 0.819% | 10.5% | 102% | 3.76% | -34.5% | -81.3% | -99.9% | -74.4% | -100% | -76% | -99.9% | 83.9% | 99.3% | -62% | -88.1% | -66.5% | -92.9% | -54.6% | -91.4% | 30.2% | 46% | -60.3% | -95.6% | -56.3% | -84.3% | 0.409 | 0.115
CC1(C)CC=C(c2ccccc2)c2cc(/C=C/c3ccc(C(=O)O)cc3)ccc21 | 1.18% | 1.38% | 0.925% | -8.39% | 10.6% | 7.54% | 8.04% | 5.98% | 18.8% | 9.32% | 6.74% | 13% | 6.08% | 8.35% | 2.52% | 2.83% | 0.861% | 0.353% | -4.19% | 0.705% | 0% | 0% | -4.62% | -9.29% | -3.7% | -30.1% | -1.22 | -0.368
Cc1ccc(S(=O)(=O)c2ccc([N+](=O)[O-])o2)cc1 | 3.49% | 4.92% | 103% | 103% | 81% | 103% | -30.4% | -44.1% | -96.9% | -100% | -99.3% | -100% | 83% | 88.8% | -0.166% | -5.06% | -76.8% | -91.9% | -86.5% | -92.7% | 18.5% | 9.8% | -9.29% | -10.6% | 3.4% | 0.123% | -1.25 | -1.57
CCCCCCCCOc1ccc(-c2noc([C@@H]3CCCN3C(=N)N)n2)cc1C(F)(F)F | 46.2% | 70.7% | 8.34% | 102% | 114% | 138% | 19.2% | -91.9% | -94.9% | -100% | -99.9% | -99.9% | 35.1% | 82.8% | 0.514% | -52.9% | -72.1% | -92.8% | -86.2% | -93.7% | 15.4% | 6.63% | -6.84% | -99.7% | -41.8% | -89.2% | -1.83 | -2.7
